Legend:
ALOMY [1] = experiment: Post-emergence herbicidal action against ALOMY; format: in vivo, Alopecurus myosuroides; conditions: 80 g/ha, visual assessment after about 3 weeks
Summary of the method: (§1)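 Greenhouse post-emergence test; one-leaf stage (2–3 wk post-sowing), sandy loam. Spray: WP/EC in water, 600–800 l/ha, 0.2% wetting agent, onto green parts. Visual rating ~3 wk later, % vs untreated (100% = dead, 0% = like control).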

AVEFA [2] = experiment: Post-emergence herbicidal action against AVEFA; format: in vivo, Avena fatua; conditions: 80 g/ha, visual assessment after about 3 weeks
Summary of the method: as §1

DIGSA [3] = experiment: Post-emergence herbicidal action against DIGSA; format: in vivo, Digitaria sanguinalis; conditions: 80 g/ha, visual assessment about 3 weeks after treatment vs untreated controls
Summary of the method: as §1

ECHCG [4] = experiment: Post-emergence herbicidal action against ECHCG; format: in vivo, Echinochloa crus-galli; conditions: 80 g/ha, visual assessment about 3 weeks after treatment vs untreated controls
Summary of the method: as §1

LOLRI [5] = experiment: Post-emergence herbicidal action against LOLRI; format: in vivo, Lolium rigidum; conditions: 80 g/ha, visual assessment about 3 weeks after treatment vs untreated controls
Summary of the method: as §1

SETVI [6] = experiment: Post-emergence herbicidal action against SETVI; format: in vivo, Setaria viridis; conditions: 80 g/ha, visual assessment about 3 weeks after treatment vs untreated controls
Summary of the method: as §1

HORMU = experiment: Post-emergence herbicidal action against HORMU; format: in vivo, Hordeum murinum; conditions: 80 g/ha, visual assessment about 3 weeks after treatment vs untreated controls
Procedure: (§2) Seeds of monocotyledonous and dicotyledonous weed and crop plants are laid out in sandy loam soil in wood-fiber pots, covered with soil and cultivated in a greenhouse under good growth conditions. 2 to 3 weeks after sowing, the test plants are treated at the one-leaf stage. The compounds of the invention, formulated in the form of wettable powders (WP) or as emulsion concentrates (EC), are then sprayed onto the green parts of the plants as aqueous suspension or emulsion at a water application rate equating to 600 to 800 l/ha with addition of 0.2% wetting agent. After the test plants have been left to stand in the greenhouse under optimal growth conditions for about 3 weeks, the action of the preparations is assessed visually in comparison to untreated controls (herbicidal action in percent (%): 100% activity=the plants have died, 0% activity=like control plants).

ALOMY [7] = experiment: Pre-emergence herbicidal action against ALOMY; format: in vivo, Alopecurus myosuroides; conditions: 320 g/ha, scored visually after 3 weeks vs untreated controls
Summary of the method: (§3)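 Percent activity (0% = like control, 100% = dead) read visually after a 3-week greenhouse period. Application: aqueous WP or EC formulations sprayed onto soil covering sown seeds, water rate 600 to 800 L/ha with 0.2% wetting agent.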

AVEFA [8] = experiment: Pre-emergence herbicidal action against AVEFA; format: in vivo, Avena fatua; conditions: 320 g/ha, scored visually after 3 weeks vs untreated controls
Summary of the method: as §3

DIGSA [9] = experiment: Pre-emergence herbicidal action against DIGSA; format: in vivo, Digitaria sanguinalis; conditions: 320 g/ha, scored visually after 3 weeks vs untreated controls
Summary of the method: as §3

ECHCG [10] = experiment: Pre-emergence herbicidal action against ECHCG; format: in vivo, Echinochloa crus-galli; conditions: 320 g/ha, scored visually after 3 weeks vs untreated controls
Summary of the method: as §3

LOLRI [11] = experiment: Pre-emergence herbicidal action against LOLRI (Table 8, titled post-emergence at 320 g/ha); format: in vivo, Lolium rigidum; conditions: table stands in the pre-emergence section
Summary of the method: as §3

SETVI [12] = experiment: Pre-emergence herbicidal action against SETVI; format: in vivo, Setaria viridis; conditions: 320 g/ha, scored visually after 3 weeks vs untreated controls
Summary of the method: as §3

AMARE = experiment: Pre-emergence herbicidal action against AMARE; format: in vivo, Amaranthus retroflexus; conditions: 320 g/ha
Summary of the method: as §3

MATIN = experiment: Pre-emergence herbicidal action against MATIN; format: in vivo; conditions: 320 g/ha
Summary of the method: as §3

POLCO = experiment: Pre-emergence herbicidal action against POLCO; format: in vivo, Polygonum convolvulus; conditions: 320 g/ha
Excerpt: Seeds of monocotyledonous and dicotyledonous weed plants and crop plants are laid out in sandy loam soil in wood-fiber pots and covered with soil. The compounds of the invention, formulated in the form of wettable powders (WP) or as emulsion concentrates (EC), are then applied to the surface of the covering soil as aqueous suspension or emulsion at a water application rate equating to 600 to 800 L/ha with addition of 0.2% wetting agent.
After the treatment, the pots are placed in a greenhouse and kept under good growth conditions for the trial plants. The damage to the test plants is scored visually after a test period of 3 weeks by comparison with untreated controls (herbicidal activity in percent (%): 100% activity=the plants have died, 0% activity=like control plants).

VIOTR = experiment: Pre-emergence herbicidal action against VIOTR; format: in vivo, Viola tricolor; conditions: 320 g/ha
Summary of the method: as §3

VERPE = experiment: Pre-emergence herbicidal action against VERPE; format: in vivo, Veronica persica; conditions: 320 g/ha
Summary of the method: as §3

ABUTH = experiment: Post-emergence herbicidal action against ABUTH; format: in vivo, Abutylon threophrasti; conditions: 80 g/ha, visual assessment about 3 weeks after treatment vs untreated controls
Procedure: as §2

Compound	Post-emergence action against ALOMY in % (ALOMY [1]) [%]	Post-emergence action against AVEFA in % (AVEFA [2]) [%]	Post-emergence action against DIGSA in % (DIGSA [3]) [%]	Post-emergence action against ECHCG in % (ECHCG [4]) [%]	Post-emergence action against LOLRI in % (LOLRI [5]) [%]	Post-emergence action against SETVI in % (SETVI [6]) [%]	Post-emergence action against HORMU in % (HORMU) [%]	Pre-emergence action against ALOMY in % (ALOMY [7]) [%]	Pre-emergence action against AVEFA in % (AVEFA [8]) [%]	Pre-emergence action against DIGSA in % (DIGSA [9]) [%]	Pre-emergence action against ECHCG in % (ECHCG [10]) [%]	Pre-emergence herbicidal action against LOLRI in % (LOLRI [11]) [%]	Pre-emergence action against SETVI in % (SETVI [12]) [%]	Pre-emergence action against AMARE in % (AMARE) [%]	Pre-emergence action against MATIN in % (MATIN) [%]	Pre-emergence action against POLCO in % (POLCO) [%]	Pre-emergence action against VIOTR in % (VIOTR) [%]	Pre-emergence action against VERPE in % (VERPE) [%]	Post-emergence action against ABUTH in % (ABUTH) [%]
C#Cc1cc(Cl)c(C2=C(O)C3(CCC(COC)C3)NC2=O)c(OC)c1 (stereo not drawn) [Example I-01]	100	90	90	90	100	90	100	–	–	–	–	–	–	–	–	–	–	–	–
C#Cc1cc(Cl)c(C2=C(O)C3(CCC(COCC)C3)NC2=O)c(OC)c1 (stereo not drawn) [Example I-08]	80	90	80	–	90	90	80	–	–	–	–	–	–	–	–	–	–	–	–
C=CCOCC1CCC2(C1)NC(=O)C(c1c(C)cc(C#CC)cc1Cl)=C2O (stereo not drawn) [Example I-46]	–	–	90	100	90	100	–	100	90	100	100	100	100	100	90	90	100	–	–
CC#Cc1cc(C)c(C2=C(O)C3(CCC(COCCOC)C3)NC2=O)c(Cl)c1 (stereo not drawn) [Example I-51]	100	100	100	100	90	100	–	100	100	100	100	100	100	100	100	80	100	100	–
C=CCOCC1CCC2(C1)NC(=O)C(c1c(C)cc(C#CC)cc1Br)=C2O (stereo not drawn) [Example I-70]	90	–	90	100	90	100	–	100	100	100	100	100	100	–	80	80	100	–	–
C#CCOCC1CCC2(C1)NC(=O)C(c1c(C)cc(C#CC)cc1Cl)=C2O (stereo not drawn) [Example I-79]	90	90	100	100	100	100	–	100	100	100	100	100	100	100	90	90	100	80	–
CC#Cc1cc(C)c(C2=C(OC(=O)OCC)C3(CCC(COCC)C3)NC2=O)c(Cl)c1 (stereo not drawn) [Example P-11]	80	100	100	–	100	100	100	–	–	–	–	–	–	–	–	–	–	–	–
CC#Cc1cc(C)c(C2=C(OC(=O)C(C)C)C3(CCC(COC)C3)NC2=O)c(Br)c1 (stereo not drawn) [Example P-33]	100	90	100	–	100	100	–	100	100	100	100	100	100	100	–	100	100	80	80
CC#Cc1cc(C)c(C2=C(OC(=O)C(C)C)C3(CCC(COCC)C3)NC2=O)c(OC)c1 (stereo not drawn) [Example P-60]	100	100	90	100	100	100	–	100	100	100	100	100	100	100	90	80	100	80	–
CC#Cc1cc(C)c(C2=C(OC(=O)OCC)C3(CCC(COCCOC)C3)NC2=O)c(OC)c1 (stereo not drawn) [Example P-80]	100	90	90	100	90	100	–	100	100	100	100	100	100	90	90	90	100	100	–
CC#Cc1cc(C)c(C2=C(OC(=O)OCC)C3(CCC(COCCC)C3)NC2=O)c(Cl)c1 (stereo not drawn) [Example P-86]	90	–	90	100	100	100	–	100	80	100	100	100	100	100	80	90	100	100	–
